Results reported in patent US20240124460A1, “METHODS AND COMPOSITIONS FOR TARGETED PROTEIN DEGRADATION” (Ranok Therapeutics (Hangzhou) Co. Ltd., priority 2020, published 2024).
Like-named read-outs stand apart in the source and are kept apart here.

What was measured:
ERBB2 = ERBB2 (HER2) flow cytometry protein degradation assay in BT-474 cells; assay type: cell-based, human; conditions: DC50, BT-474 cells, 24 hr
Method in brief: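 BT-474 cells trypsinised after compound treatment and stained with PE-conjugated anti-ERBB2 antibody, 30 min at 25° C in the dark, then fixed in 1% paraformaldehyde for flow cytometry. % inhibition = 100−(D−B)/(S−B)*100, using treated, untreated-stained and unstained cell fluorescence.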

[1] = system: MDA-MB-231 human breast adenocarcinoma; assay: MDA-MB-231 CCK-8 proliferation assay; assay type: cell-based; conditions: MDA-MB-231 cells, 72 hr
Description: (§1) The following cancer cell lines were employed: A549 human lung carcinoma (ATCC, #CCL-185); BT-474 human breast carcinoma (ATCC, #HTB-20); MDA-MB-231 human breast adenocarcinoma (ATCC, #CRM−HTB-26); MDA-MB-468 human breast adenocarcinoma (ATCC, #HTB-132); MV-4-11 human acute myeloid leukemia (ATCC, #CRL-9591); and U-87 MG human glioblastoma (ATCC, #HTB-14). Cell lines were cultured essentially according to ATCC recommendations.
(§2) 3-fold serial dilutions of each test compound were prepared ranging from 20 μM to 1.02 nM.
(§3) % Inhibition=100−(D−B)/(S−B)*100%. • S: Absorbance of cells treated with DMSO • D: Absorbance of compound-treated cells • B: Absorbance of medium with DMSO without cells

[2] = system: MDA-MB-468 human breast adenocarcinoma; assay: MDA-MB-468 CCK-8 proliferation assay; assay type: cell-based; conditions: MDA-MB-468 cells, 72 hr
Description: as §1, §2, §3

[3] = system: U-87 MG human glioblastoma; assay: U87 MG CCK-8 proliferation assay; assay type: cell-based; conditions: U-87 MG cells, read-out: U87MG CCK-8
Method in brief: (§4)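 CCK-8 absorbance read-out, with inhibition expressed against DMSO-treated cells after subtracting a cell-free DMSO medium blank. Compounds tested over a 3-fold dilution series spanning 20 μM to 1.02 nM; lines grown essentially as ATCC recommends.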

HSP90α protein [4] = biological target: T1, HSP90α protein (Homo sapiens, UniProt P07900); assay: HSP90α-binding FP (FITC) assay; conditions: FP competition with FITC-geldanamycin
T1 construct: purchased BPS Bioscience #50298
Method in brief: (§5)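 Fluorescence polarization measured competition with N-terminal human HSP90α, using either FITC-geldanamycin or BODIPY-labelled triazolone RNK04010 as tracer (5 nM final each). Compounds were tested in 2.5-fold dilutions from 20 μM to 5.2 nM, with incubation at 25 °C for 120 min (FITC) or 300 min (BODIPY).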

[5] = system: MV-4-11 human acute myeloid leukemia; assay: MV-4-11 CCK-8 proliferation assay; assay type: cell-based; conditions: MV-4-11 cells, 72 hr
Method in brief: as §4

MAPK7 [6] = biological target: T2, MAPK7 (Homo sapiens, UniProt Q13164); assay: MAPK7 Western blot protein degradation assay in U-87 MG cells; assay type: cell-based; design: U-87 MG human glioblastoma cells, which express MAPK7; endogenous in cells; host or cells: U-87 MG; conditions: 48 hr
Method in brief: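 U-87 MG glioblastoma cells treated with compounds at various concentrations for 48 h at 37 °C. MAPK7 (ERK5) levels in protein-normalized lysates measured by Western blot with β-actin as loading reference, quantified by fluorescence imaging.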

HSP90α protein [7] = biological target: T1, HSP90α protein; assay: HSP90α-binding FP (BODIPY) assay; conditions: FP competition with BODIPY-labeled RNK04010
Method in brief: as §5

MAPK7 [8] = biological target: T2, MAPK7; assay: MAPK7 kinase assay (ADP-Glo); assay type: biochemical; design: purchased Carna Biosciences #04-146; conditions: ATP 340 μM
Description: The inhibition of MAPK7 kinase activity by test compounds was measured by the ADP-Glo Kinase Assay (Promega, #V6930), following the manufacturer's instructions, except as noted. 3-fold serial dilutions of each test compound were prepared ranging from 50 μM to 2.54 nM. Also, as a positive control, a 4-fold serial dilution of the MAPK7 inhibitor, XMD17-109 (MedChemExpress, #HY-15665) was prepared ranging from 10 μM to 0.04 nM. In brief, in 384-well plates, test compounds were added to the kinase reaction mix containing recombinant MAPK7 protein (Carna Biosciences, #04-146; 20 nM final concentration), myelin basic protein (SignalChem Biotech, #M42-54G; 0.1 mg/ml final concentration) and ATP (340 μM final concentration), then mixed by shaking and incubated with ADP-Glo Reagent and Kinase Detection Reagent. Luminescence was measured on a BioTek plate reader.
Lumpositive: The average ratio for 10 wells of positive controls (10 μM XMD17-109) across the plate.
Lumvehicle: The average ratio for 10 wells of negative controls (0.5% DMSO) across the plate.

[9] = system: A549 human lung carcinoma; assay: A549 CCK-8 proliferation assay; assay type: cell-based; conditions: A549 cells, 72 hr
Description: as §1, §2, §3

T2 sequence (Q13164 whole entry): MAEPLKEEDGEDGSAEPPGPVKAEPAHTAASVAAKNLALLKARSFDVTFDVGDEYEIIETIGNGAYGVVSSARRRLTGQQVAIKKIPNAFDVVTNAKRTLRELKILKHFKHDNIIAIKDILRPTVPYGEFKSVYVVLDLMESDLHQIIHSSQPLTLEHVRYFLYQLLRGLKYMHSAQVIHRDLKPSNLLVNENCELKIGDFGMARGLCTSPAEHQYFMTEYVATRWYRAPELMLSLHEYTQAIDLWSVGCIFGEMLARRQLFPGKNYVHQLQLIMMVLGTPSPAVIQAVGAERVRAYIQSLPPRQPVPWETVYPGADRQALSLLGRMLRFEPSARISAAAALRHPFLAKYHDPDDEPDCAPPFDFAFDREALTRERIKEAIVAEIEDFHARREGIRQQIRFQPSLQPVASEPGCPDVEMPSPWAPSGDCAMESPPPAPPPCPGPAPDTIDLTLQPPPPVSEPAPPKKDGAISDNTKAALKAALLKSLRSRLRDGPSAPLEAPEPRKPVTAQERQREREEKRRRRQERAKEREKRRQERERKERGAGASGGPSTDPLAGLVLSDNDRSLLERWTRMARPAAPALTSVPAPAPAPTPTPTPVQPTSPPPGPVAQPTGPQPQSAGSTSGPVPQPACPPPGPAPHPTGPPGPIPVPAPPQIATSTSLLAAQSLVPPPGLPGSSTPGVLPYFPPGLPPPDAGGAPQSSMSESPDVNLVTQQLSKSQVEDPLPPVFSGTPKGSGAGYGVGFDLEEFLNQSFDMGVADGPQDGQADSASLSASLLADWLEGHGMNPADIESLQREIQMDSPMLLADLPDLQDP

Row | SMILES | EC50 [1] [nM] | EC50 [2] [nM] | EC50 ([3]; Homo sapiens, U-87 MG, 72 h) [nM] | IC50 (HSP90α protein [4]) [nM] | EC50 ([5]; Homo sapiens, MV4-11) [nM] | MAPK7 degradation (30 nM) (MAPK7 [6]) | MAPK7 degradation (100 nM) (MAPK7 [6]) | MAPK7 degradation (1000 nM) (MAPK7 [6]) | IC50 (HSP90α protein [7]) [nM] | IC50 (MAPK7 [8]) [nM] | MAPK7 degradation (300 nM) (MAPK7 [6]) | EC50 [9] [nM] | EC50 ([3]; 72 hr) [nM] | EC50 [5] [nM] | ERBB2 degradation (ERBB2)
1 | CCOc1cc(N2CCC(C(=O)NCC3CCN(C(=O)C4CCN(Cc5ccc(-n6c(O)nnc6-c6cc(C(C)C)c(O)cc6O)cc5)CC4)C3)CC2)ccc1Nc1ncc2c(n1)N(C)c1ccccc1C(=O)N2C (stereo not drawn) [Compound 010, N-((1-(1-(4-(3-(2,4-dihydroxy-5-isopropylphenyl)-5-hydroxy-4H-1,2,4-triazol-4-yl)benzyl)piperidine-4-carbonyl)pyrrolidin-3-yl)methyl)-1-(4-((5,11-dimethyl-6-oxo-6,11-dihydro-5H-benzo[e]pyrimido[5,4-b][1,4]diazepin-2-yl)amino)-3-ethoxyphenyl)piperidine-4-carboxamide] | > 1000 | > 1000 | 100 to 1000 | 100 to 1000 | < 100 |  |  |  |  |  |  |  |  |  | C (DC50 > 1000 nM)
2 | CCOc1cc(N2CCC(C(=O)N3CCC(CN4CCN(Cc5ccc(-n6c(O)nnc6-c6cc(CC)c(O)cc6O)cc5)CC4)CC3)CC2)ccc1Nc1ncc2c(n1)N(C)c1ccccc1C(=O)N2C [Compound 013, 2-((2-ethoxy-4-(4-(4-((4-(4-(3-(5-ethyl-2,4-dihydroxyphenyl)-5-hydroxy-4H-1,2,4-triazol-4-yl)benzyl)piperazin-1-yl)methyl)piperidine-1-carbonyl)piperidin-1-yl)phenyl)amino)-5,11-dimethyl-5H-benzo[e]pyrimido[5,4-b][1,4]diazepin-6(11H)-one] | 100 to 1000 | 100 to 1000 | 100 to 1000 | 100 to 1000 | < 100 | C (< 33% degradation) | C (< 33% degradation) | A (>66% degradation) |  |  |  |  |  |  | B (DC50 = 100-1000 nM)
3 | CCOc1cc(N2CCC(C(=O)N3CCC(CN4CCN(Cc5ccc(-n6c(O)nnc6-c6cc(C(C)C)c(O)cc6O)cc5)CC4)CC3)CC2)ccc1Nc1ncc2c(n1)N(C)c1ccccc1C(=O)N2C.Cl [Compound 032, 2-((4-(4-(4-((4-(4-(3-(2,4-dihydroxy-5-isopropylphenyl)-5-hydroxy-4H-1,2,4-triazol-4-yl)benzyl)piperazin-1-yl)methyl)piperidine-1-carbonyl)piperidin-1-yl)-2-ethoxyphenyl)amino)-5,11-dimethyl-5,11-dihydro-6H-benzo[e]pyrimido[5,4-b][1,4]diazepin-6-one] |  |  | 100 to 1000 |  | < 100 | C (< 33% degradation) | B (33-66% degradation) | A (>66% degradation) | < 100 | > 1000 | A (>66% degradation) |  |  |  | B (DC50 = 100-1000 nM)

Second part, led by results:

Row | EC50 [1] [nM] | EC50 [2] [nM] | EC50 ([3]; Homo sapiens, U-87 MG, 72 h) [nM] | IC50 (HSP90α protein [4]) [nM] | EC50 ([5]; Homo sapiens, MV4-11) [nM] | MAPK7 degradation (30 nM) (MAPK7 [6]) | MAPK7 degradation (100 nM) (MAPK7 [6]) | MAPK7 degradation (1000 nM) (MAPK7 [6]) | IC50 (HSP90α protein [7]) [nM] | IC50 (MAPK7 [8]) [nM] | MAPK7 degradation (300 nM) (MAPK7 [6]) | EC50 [9] [nM] | EC50 ([3]; 72 hr) [nM] | EC50 [5] [nM] | SMILES | ERBB2 degradation (ERBB2)
4 | < 100 | < 100 | 100 to 1000 |  | < 100 | C (< 33% degradation) | B (33-66% degradation) | A (>66% degradation) | 100 to 1000 |  | A (>66% degradation) | 100 to 1000 |  |  | CCOc1cc(N2CCC(C(=O)N3CCC(N4CCN(c5ccc(-n6c(O)nnc6-c6cc(C(C)C)c(O)cc6O)cc5)CC4)CC3)CC2)ccc1Nc1ncc2c(n1)N(C)c1ccccc1C(=O)N2C [Compound 040, 2-((4-(4-(4-(4-(4-(3-(2,4-dihydroxy-5-isopropylphenyl)-5-hydroxy-4H-1,2,4-triazol-4-yl)phenyl)piperazin-1-yl)piperidine-1-carbonyl)piperidin-1-yl)-2-ethoxyphenyl)amino)-5,11-dimethyl-5,11-dihydro-6H-benzo[e]pyrimido[5,4-b][1,4]diazepin-6-one] | 
5 | < 100 | < 100 | 100 to 1000 |  | < 100 |  |  |  | 100 to 1000 |  |  |  |  |  | CCOc1cc(N2CCC(C(=O)N3CCN(Cc4ccc(-n5c(O)nnc5-c5cc(CC)c(O)cc5O)cc4)CC3)CC2)ccc1Nc1ncc2c(n1)N(C)c1ccccc1C(=O)N2C [Compound 049, 2-((2-ethoxy-4-(4-(4-(4-(3-(5-ethyl-2,4-dihydroxyphenyl)-5-hydroxy-4H-1,2,4-triazol-4-yl)benzyl)piperazine-1-carbonyl)piperidin-1-yl)phenyl)amino)-5,11-dimethyl-5,11-dihydro-6H-benzo[e]pyrimido[5,4-b][1,4]diazepin-6-one] | 
6 | 100 to 1000 | < 100 |  |  |  |  |  |  | 100 to 1000 |  |  |  | 100 to 1000 | < 100 | CCOc1cc(N2CCC(C(=O)NCCOCc3ccc(-n4c(O)nnc4-c4cc(C(C)C)c(O)cc4O)cc3)CC2)ccc1Nc1ncc2c(n1)N(C)c1ccccc1C(=O)N2C [Compound 053, N-(2-((4-(3-(2,4-dihydroxy-5-isopropylphenyl)-5-hydroxy-4H-1,2,4-triazol-4-yl)benzyl)oxy)ethyl)-1-(4-((5,11-dimethyl-6-oxo-6,11-dihydro-5H-benzo[e]pyrimido[5,4-b][1,4]diazepin-2-yl)amino)-3-ethoxyphenyl)piperidine-4-carboxamide] | 
7 |  |  | 100 to 1000 |  |  |  |  |  | 100 to 1000 | 100 to 1000 |  | 100 to 1000 |  | < 100 | CCOc1cc(N2CCC(C(=O)N3CCC(CN4CCN(Cc5ccc(-n6c(C(=O)NC(C)C(F)(F)F)nnc6-c6cc(CC)c(O)cc6O)cc5)CC4)CC3)CC2)ccc1Nc1ncc2c(n1)N(S(C)(=O)=O)c1ccccc1C(=O)N2C.Cl (stereo not drawn) [Compound 078, 4-(4-((4-((1-(1-(3-ethoxy-4-((5-methyl-11-(methylsulfonyl)-6-oxo-6,11-dihydro-5H-benzo[e]pyrimido[5,4-b][1,4]diazepin-2-yl)amino)phenyl)piperidine-4-carbonyl)piperidin-4-yl)methyl)piperazin-1-yl)methyl)phenyl)-5-(5-ethyl-2,4-dihydroxyphenyl)-N-(1,1,1-trifluoropropan-2-yl)-4H-1,2,4-triazole-3-carboxamide] | B (DC50 = 100-1000 nM)
8 |  |  | > 1000 | > 1000 | > 1000 |  |  |  |  | < 100 |  |  |  |  | CCOc1cc(N2CCC(C(=O)N3CCC(CN4CCN(Cc5ccc(-n6c(O)nnc6-c6cc(C(C)C)c(O)cc6OC)cc5)CC4)CC3)CC2)ccc1Nc1ncc2c(n1)N(S(C)(=O)=O)c1ccccc1C(=O)N2C [Compound 128, 2-((2-ethoxy-4-(4-(4-((4-(4-(3-hydroxy-5-(4-hydroxy-5-isopropyl-2-methoxyphenyl)-4H-1,2,4-triazol-4-yl)benzyl)piperazin-1-yl)methyl)piperidine-1-carbonyl)piperidin-1-yl)phenyl)amino)-5-methyl-11-(methylsulfonyl)-5,11-dihydro-6H-benzo[e]pyrimido[5,4-b][1,4]diazepin-6-one] | 
